PMC11532494 (Nature Communications, 2024)
Several values for one entry are separate records, joined by “and”; a condition that tells them apart may be missing. Equal values may be shown once. Read-outs that look alike come from different tables or passages of the source.

Key:
BsAcuC = BsAcuC (Bacillus subtilis, UniProt P39067); type: biochemical; conditions: substrate with BsAcuC
KpHdaH H144A = type: biochemical, Klebsiella pneumoniae
D20-37KpHdaH = type: biochemical, Klebsiella pneumoniae; conditions: substrate with D20-37KpHdaH (L1-loop deletion)
BsAcuC (2c) [1] = molecular target: T1, BsAcuC (2c) (Bacillus subtilis, UniProt P39067); experiment: Dose-response inhibition assay; type: biochemical; conditions: 40 µM LGKac; for IC50: 200 nM enzyme, 30 min, 37 °C
T1 construct: made in house; host or cells: E. coli BL21 (DE3)
T1 sequence (P39067 1-387): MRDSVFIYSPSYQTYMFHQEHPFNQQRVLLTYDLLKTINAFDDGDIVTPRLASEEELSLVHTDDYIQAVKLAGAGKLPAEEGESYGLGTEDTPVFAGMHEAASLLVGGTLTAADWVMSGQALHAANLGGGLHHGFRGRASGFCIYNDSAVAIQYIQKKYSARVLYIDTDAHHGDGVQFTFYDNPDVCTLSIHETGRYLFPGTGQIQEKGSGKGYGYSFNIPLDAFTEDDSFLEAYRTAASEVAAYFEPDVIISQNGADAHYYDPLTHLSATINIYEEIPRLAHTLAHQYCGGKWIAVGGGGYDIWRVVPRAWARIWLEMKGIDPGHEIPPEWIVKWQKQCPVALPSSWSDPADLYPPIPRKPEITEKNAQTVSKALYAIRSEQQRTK
Description: Data was transformed to relative enzyme activity (%) compared to control wells without inhibitor, and fitted to sigmoidal functions with variable slope (Eqs. 3, 4 parameters, h: Hill slope) to afford IC50 values. Assuming fast-on/fast-off competitive inhibition, the Cheng–Prusoff equation (Eq. 4) was employed to transform IC50 data into inhibitory constants (Ki), with KM values as determined previously.3 Res.activity=Res.activitybottom+Res.activitytop−Res.activitybottom/1+10^(logIC50−logI)h 4 Ki=IC50/1+[S]/KM

KpHdaH (1b) [2] = molecular target: T2, KpHdaH (1b) (Klebsiella pneumoniae, UniProt A0A377Z5F6); experiment: biochemical; conditions: for IC50: 15 nM enzyme, 60 min, 37 °C
LcApaH (3) = LcApaH (3) (Legionella cherrii, UniProt A0A0W0SGS1); experiment: biochemical; conditions: for IC50: 0.5 nM enzyme, 30 min, 37 °C
LpApaH (3) = LpApaH (3) (Legionella pneumophila, UniProt A0A2S6EWV0); experiment: biochemical
RwDmhA (1b) [3] = molecular target: T3, RwDmhA (1b) (Rhizorhabdus wittichii, UniProt A0A067XIQ6); experiment: biochemical; conditions: for IC50: 30 nM enzyme, 60 min, 37 °C
(UniProt A0A2N0XRJ0) = experiment: biochemical; design: species or system Vibrio sp.; conditions: for IC50: 60 µM QPKKac, 1.5 nM enzyme, 60 min, 37 °C
BsAcuC (2c) [4] = molecular target: T1, BsAcuC (2c); experiment: Inhibitor screening assay (10 µM or 1 µM); type: biochemical; conditions: pre-screening at 10 µM or 1 µM inhibitor
Description: Data was transformed to relative enzyme activity (%) compared to control wells without inhibitors.

KpHdaH (1b) [5] = molecular target: T2, KpHdaH (1b); experiment: biochemical; conditions: for remaining activity at 1 µM: inhibitor 1 µM; for remaining activity at 10 µM: inhibitor 10 µM
RwDmhA (1b) [6] = molecular target: T3, RwDmhA (1b); experiment: biochemical; conditions: for remaining activity at 1 µM: inhibitor 1 µM
VcHdaH (5b) = conditions: VcHdaH (5b)+TSA control; for RFU: 20 nM enzyme, 37 °C, single replicates; for RFU, mean: mean of n = 3
HsHDAC11 (5f) = conditions: cited from earlier work
PsApaH (4) = PsApaH (4) (Pseudomonas sp. M30-35, UniProt A0A1Y0KY79); experiment: biochemical
[7] = decadic log of IC50, read-out: Log[IC50(M)] (converted)
[8] = Log[IC50(M)], decadic log of IC50, 60 µM QPKKac

CC(=O)NCCCC[C@H](NC(=O)OC(C)(C)C)C(=O)Nc1ccc2c(C)cc(=O)oc2c1 [Boc-Lys(Ac)-AMC]
AMC fluorescence (BsAcuC): 768 a.u.
AMC fluorescence (KpHdaH H144A; substrate with KpHdaH H144A (first of two columns with this head)): 2059 a.u.
AMC fluorescence (KpHdaH H144A; substrate with KpHdaH H144A (second of two columns with this head)): 31 a.u.
AMC fluorescence (D20-37KpHdaH): 1597 a.u.

CC(/C=C/C(=O)NO)=C\[C@@H](C)C(=O)c1ccc(N(C)C)cc1 [TSA, trichostatin A]
IC50 (BsAcuC (2c) [1]; read-out: IC50): 5.93e-07 M
Ki (BsAcuC (2c) [1]; calculated using the Cheng–Prusoff equation): 400 nM
IC50 (BsAcuC (2c) [1]; [7]): 6.31e-07 M
IC50 (KpHdaH (1b) [2]; IC50, 60 µM QPKKac): ≤ 1.07e-08 M
Ki (KpHdaH (1b) [2]; Ki, calculated using the Cheng–Prusoff equation, 60 µM QPKKac): ≤ 2.47 nM
IC50 (KpHdaH (1b) [2]; [8]): ≤ 1.07e-08 M
IC50 (LcApaH (3); IC50, 40 µM LGKac): 1.04e-08 M
Ki (LcApaH (3); Ki, calculated using the Cheng–Prusoff equation, 40 µM LGKac): 3.95 nM
IC50 (LcApaH (3); Log[IC50(M)], decadic log of IC50, 40 µM LGKac): 1.05e-08 M
IC50 (LpApaH (3); IC50): 7.17e-09 M
Ki (LpApaH (3); Ki): 2.47 nM
IC50 (LpApaH (3); Log[IC50(M)]): 7.94e-09 M
Ki (RwDmhA (1b) [3]): 356 nM
IC50 (RwDmhA (1b) [3]; IC50, 60 µM QPKKac): 8.65e-07 M
IC50 (RwDmhA (1b) [3]; [8]): 8.71e-07 M
Ki ((UniProt A0A2N0XRJ0)): 11.1 nM
IC50 ((UniProt A0A2N0XRJ0); read-out: IC50): 2.54e-08 M
IC50 ((UniProt A0A2N0XRJ0); [7]): 2.51e-08 M
inhibition of BsAcuC (2c) in the initial screen, in words (BsAcuC (2c) [4]): only weakly inhibited
remaining activity at 1 µM (KpHdaH (1b) [5]; individual replicates): 2.1%
remaining activity at 1 µM (KpHdaH (1b) [5]; mean): 2.15%
remaining activity at 10 µM (KpHdaH (1b) [5]; individual replicates): -0.2%
remaining activity at 10 µM (KpHdaH (1b) [5]; mean): -0.2%
remaining activity at 1 µM (RwDmhA (1b) [6]; individual replicates): 45.9%
remaining activity at 1 µM (RwDmhA (1b) [6]; mean): 45.5%
remaining activity at 10 µM (RwDmhA (1b) [6]; inhibitor 10 µM, mean): 7.3%
RFU (VcHdaH (5b); 10 µM peptide 2 (S2), 45 min): 14 RFU and 2 RFU and 59 RFU
RFU, mean (VcHdaH (5b); 10 µM peptide 2 (S2)): 25 RFU
RFU (VcHdaH (5b); 10 µM peptide 2a (S2a), 30 min): -513 RFU and -208 RFU and -504 RFU
RFU, mean (VcHdaH (5b); 10 µM peptide 2a (S2a)): -408 RFU
RFU (VcHdaH (5b); 20 µM Boc-Lys(Ac)-AMC, 30 min): 8 RFU and -7 RFU and -73 RFU
RFU, mean (VcHdaH (5b); 20 µM Boc-Lys(Ac)-AMC): -24 RFU
inhibition of HsHDAC11 (5f), in words (HsHDAC11 (5f)): only weakly inhibited
IC50 (PsApaH (4)): ≤ 18.1 nM
Ki (PsApaH (4)): ≤ 7.56 nM
